Test system: H. pylori strain ATCC 43504
Test: bactericidal activity: survival of bacteria by viable counts (CFU/ml)
Assay type: cell-based, Helicobacter pylori
Procedure: All tests of bactericidal activity in this example were conducted for 30 minutes at 37° C. The parameter measured was survival of bacteria exposed to GML and/or nisin, as determined by viable counts (colony forming units per ml [CFU/ml]) determined by standard dilution and plating techniques. Media, growth and test conditions were as follows: All cultures of Helicobacter were incubated under microaerobic conditions in GasPak. H. pylori was cultured for 2 to 4 days on Trypticase Soy agar+5% defibrinated sheep blood and then inoculated into NYCIII broth and grown overnight with gentle shaking. [NYCIII broth contains, per liter: 1 g soluble starch (Difco), 15 g proteose peptone #3 (Difco), 5 g NaCl, 4 gK2 HPO4, 1 g KH2 PO4, 5 g glucose, 25 ml fresh yeast extract (Gibco), 120 ml gamma-globulin-free horse serum (Sigma)]. Suspensions for testing the activity of GML and nisin were in 10% sucrose. Viable counts were determined after 3-5 days' growth on Trypticase Soy agar-5% sheep blood.
A suspension of bacteria was divided and exposed to different concentrations of the agents, singly or combined. Survival of bacteria is expressed relative to the unincubated (zero time) control suspension. Nisin alone, at concentrations between 30 and 300 μg/ml, had little or no effect on the viability of H. pylori (survival ≥10%). At concentrations of 1 and 3 μg/ml GML, in the absence of nisin, there was also little or no reduction in the viability of the inoculum (survival≥10%). […] When the bacteria were exposed to 10 μg/ml of GML alone, again more than 10% of the bacteria survived.

| Compound | Survival of bacteria relative to the unincubated (zero time) control suspension (10 μg/ml of GML alone, 30 minutes at 37° C.) | effect on the viability of H. pylori (GML 10 μg/ml administered alone) | Survival of bacteria relative to the unincubated (zero time) control suspension (GML 1 and 3 μg/ml, in the absence of nisin, 30 minutes at 37° C.) [%] | effect on viability of the bacterial suspensions (GML alone, 30 or 100 μg/ml, 30 minutes at 37° C.) | effect on the viability of H. pylori (nisin 30-100 μg/ml administered alone) | Survival of bacteria relative to the unincubated (zero time) control suspension (nisin alone, 30 to 300 μg/ml, 30 minutes at 37° C., 10% sucrose, no chelator) [%] |
| --- | --- | --- | --- | --- | --- | --- |
| CCCCCCCCCCCC(=O)OCC(O)CO (stereo not drawn) [GML, Glycerol monolaurate] | more than 10% | little effect on the viability | ≥ 10 | sterilized the bacterial suspensions | – | – |
| nisin | – | – | – | – | little effect on the viability | ≥ 10 |

— patent publication US5804549A, “Compositions with activity against helicobacter” (AMBI Inc., priority 1996, dated 1998)
